Test results from patent US20090069315A1, “Use of Pyrazolo(1,5A)Pyrimidin-7-YL Amine Derivatives in the Treatment of Neurological Disorders” (priority 2006, published 2009).

Legend:
[1] = target: T1, EphA4 (Mus musculus, UniProt Q03137); test: EphA4 autophosphorylation assay in primary astrocyte cultures (EphA4 immunoprecipitation, phospho-tyrosine Western); type: cell-based; design: Primary astrocyte cultures are established from neonatal mouse cortex; endogenous in cells; host or cells: primary astrocytes from neonatal mouse cortex; settings: cells pre-treated with 100 nM; FIG. 1A
Experimental: FIG. 1A, lanes and 2 represent samples from cells treated with either control IgG-Fc or with the ligand ephrinB3-Fc. […] represent samples from cells that have been pre-treated with Compound 1 (100 nM) and are then stimulated with IgG-Fc or ephrinB3-Fc in the combined presence of the inhibitor (Compound I)(lanes 3, 4) or in its absence (lanes 5, 6). FIG. 1B, lanes 1 and 2 show EphA4 phosphorylation in control (untreated) and ephrinB3-Fc stimulated cells following serum starvation. All other lanes represent samples from cells stimulated with ephrinB3-Fc in the presence of varying concentrations (as indicated) of tested Eph inhibitors.
Primary astrocyte cultures are established from neonatal mouse cortex and purified so as to get about 95-98 pure astrocyte cultures. […] Cells are lysed, and the lysates subjected to EphA4 immunoprecipitation and subsequently analysed on Westerns for level of receptor phosphorylation using a phospho-tyrosine antibody.

[2] = test system: embryonic cortical neurons; test: In vitro assay for neurite outgrowth/axon regeneration: E16 cortical neurons on astrocyte monolayers; type: cell-based; settings: 100 nM; immunofluorescence images, FIG. 2A
Experimental: This assay is used to assess neurite outgrowth inhibition of embryonic cortical neurons by Eph receptors expressed on astrocytes or neurite outgrowth inhibition of post-natal cortical neurons by ephrin ligand present in myelin. E16 (embryonic day 16) cortical neurons are plated onto confluent astrocyte monolayers plated in 4-well chamber slides. Pharmacological inhibitors, are added to the medium and the length of longest neurite from each neuron is measured under each condition (FIG. 2A depicts an example of neurons plated in the presence of Compound 1 and visualized with the neuronal marker, Tuj-1) and compared to average neurite length on astrocytes in the absence of any pharmacological agents. FIG. 2B depicts the quantitation of neurite outgrowth effects observed with Compound 6 and Compound 7 (all tested at 100 nM concentration) in cortical cultures plated on astrocytes.

[3] = target: T1, EphA4; test: Proof of mechanism: EphA4 phosphorylation in mouse brain after dosing; type: in vivo; design: from tissue; host or cells: brain of male NMRI mice; settings: male NMRI mice, 10 mg/kg; for crossing of the blood brain barrier: inferred from block of brain EphA4 phosphorylation; for EphA4 phosphorylation in vivo in mouse brain: i.v., sacrificed 25 minutes or 1 hour after dosing, FIG. 4
Experimental: Animals were given an i.v dose of relevant compound and sacrificed 25 minutes or 1 hour after dosing (0.25 h or 1 h), the brains removed and subjected to EphA4 immunoprecipitation followed by a phospho-tyrosine Western blot. Four animals were used as controls and three-animals each were used per time point for each drug. From top to bottom, the compounds tested were Compound 1, Compound 7, and Compound 6.
Male NMRI mice were injected with relevant compounds at a dose of 10 mg/kg body weight and were sacrificed either 25 minutes or 1 hour following the dosing (0.25 h or 1 h shown in FIG. 4). The brains were removed and one half of each brain was weighed and homogenized in appropriate volume of lysis buffer for 30 seconds (10 seconds pulse and 10 seconds off—3 times). The homogenate was spun at 12,000 g for 30 minutes. Protein amounts were estimated for supernatants (using BCA) and equal amounts of protein for each condition were subjected to EphA4 immunoprecipitation followed by a phospho-tyrosine western blot. Four control animals were used and three experimental animals per time point were used for each of the compounds tested (Compounds 1, 2, 6, and 7)

[4] = test system: astrocytes; test: In vitro assay for astrogliosis: astrocyte scratch wound (cytokine-induced migration); type: cell-based, mouse; settings: relative distance of cell migration compared to control; FIG. 3
Experimental: The white bar represents the addition of Compound 6. The black bar represents no compounds added.
Assay Astrocytes are prepared from the cerebral cortex of neonatal C57BL/6 mice (P1-P2). Cells are maintained in Dulbecco's modified Eagle's medium with 10% FBS. 4-7 weeks old astrocytes are plated to confluence in 2 well chamber slides coated with poly-D-lysine for the scratch wound assay and serum starved. 48 hrs after serum starvation, the monolayer of astrocytes is scratched with sterile 200 μl tips and washed twice with PBS to get rid of cell debris. Conditioned medium (+/−cytokines) is added to the wounded astrocytes. The microscopic images of the scratch is captured at a magnification of 10× right after scratch and considered as time point 0.24 hrs, 48 hrs or 72 hrs after scratch, the same region of scratch is imaged and fixed with methanol containing, 1 μg/ml of DAPI to monitor migration and proliferation of astrocytes.

T1 sequence (Q03137 20-986): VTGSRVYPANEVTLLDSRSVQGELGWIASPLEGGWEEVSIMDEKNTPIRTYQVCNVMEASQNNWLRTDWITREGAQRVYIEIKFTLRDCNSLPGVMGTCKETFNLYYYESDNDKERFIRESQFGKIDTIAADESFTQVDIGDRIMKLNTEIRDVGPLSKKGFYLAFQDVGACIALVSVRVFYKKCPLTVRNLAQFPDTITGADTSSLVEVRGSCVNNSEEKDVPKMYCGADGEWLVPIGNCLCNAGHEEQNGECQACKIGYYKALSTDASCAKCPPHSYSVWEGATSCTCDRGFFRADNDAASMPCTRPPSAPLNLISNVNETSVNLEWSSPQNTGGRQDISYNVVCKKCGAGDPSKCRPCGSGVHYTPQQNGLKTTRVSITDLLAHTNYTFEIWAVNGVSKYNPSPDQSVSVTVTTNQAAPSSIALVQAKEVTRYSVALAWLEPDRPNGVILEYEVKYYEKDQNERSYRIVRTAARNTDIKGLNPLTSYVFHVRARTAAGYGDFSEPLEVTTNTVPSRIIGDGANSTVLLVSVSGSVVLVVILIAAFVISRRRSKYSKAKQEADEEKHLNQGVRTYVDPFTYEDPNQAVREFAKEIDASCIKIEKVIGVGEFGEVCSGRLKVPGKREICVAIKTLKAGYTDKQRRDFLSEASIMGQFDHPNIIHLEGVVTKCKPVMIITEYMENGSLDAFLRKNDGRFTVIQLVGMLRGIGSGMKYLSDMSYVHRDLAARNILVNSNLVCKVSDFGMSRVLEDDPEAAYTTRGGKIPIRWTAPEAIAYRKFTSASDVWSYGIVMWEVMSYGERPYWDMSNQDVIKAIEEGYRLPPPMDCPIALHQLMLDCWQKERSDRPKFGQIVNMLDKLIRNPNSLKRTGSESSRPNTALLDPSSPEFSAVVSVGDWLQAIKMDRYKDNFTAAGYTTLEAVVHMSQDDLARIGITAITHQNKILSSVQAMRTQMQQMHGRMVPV

| SMILES | melting point [°C] | also measured |
| --- | --- | --- |
| CN1CCN(c2ccc(-c3cnn4c(N)c(-c5ccccc5Cl)cnc34)cc2)CC1 [Example 84, 6-(2-Chloro-phenyl)-3-[4-(4-methyl-piperazin-1-yl)-phenyl]-pyrazolo[1,5-a]-pyrimidin-7-ylamine] | 197 to 200 |  |
| CN1CCN(c2cccc(-c3cnn4c(N)c(Cc5ccccc5)cnc34)c2)CC1 [Example 98, 6-Benzyl-3-[3-(4-methyl-piperazin-1-yl)-phenyl]-pyrazolo[1,5-a]pyrimidin-7-ylamine] | 72 to 75 |  |
| CN1CCN(c2cccc(-c3cnn4c(N)c(-c5ccccc5Cl)cnc34)c2)CC1 [Example 85, 6-(2-Chloro-phenyl)-3-[3-(4-methyl-piperazin-1-yl)-phenyl]-pyrazolo[1,5-a]-pyrimidin-7-ylamine] | 200 to 203 |  |
| CN(C)c1ccc(-c2cnn3c(N)c(-c4ccc(NS(=O)(=O)c5cccc(Cl)c5Cl)cc4)cnc23)cc1 [Example 17, N-{4-[7-Amino-3-(4-dimethylamino-phenyl)-pyrazolo[1,5-a]pyrimidin-6-yl]-phenyl}-2,3-dichloro-benzenesulfonamide] | 143 to 146 |  |
| COc1ccc(-c2cnn3c(N)c(-c4cccc(Cl)c4)c(CN4CCNCC4)nc23)cc1OC [Compound 6, 6-(3-Chloro-7-phenyl)-3-(3,4-dimethoxy-phenyl)-5-piperazin-1-ylmethyl-pyrazolo[1,5-a]pyrimidin-7-ylamine] |  | crossing of the blood brain barrier [3]: cross the blood brain barrier; EphA4 phosphorylation in vivo in mouse brain [3]: effectively block phosphorylation of EphA4 receptor in vivo; astrocyte migration induced by cytokines (TGF-α, LIF, and IFN) [4]: block astrocyte migration |
| Cc1nc2c(-c3cccc(N4CCN(C)CC4)c3)cnn2c(N)c1-c1cccc(Br)c1 [Example 91, 6-(3-Bromo-phenyl)-5-methyl-3-[3-(4-methyl-piperazin-1-yl)-phenyl]-pyrazol-o[1,5-a]pyrimidin-7-ylamine] | 107 to 113 |  |
| Cc1nc2c(-c3cccc(N4CCN(CCO)CC4)c3)cnn2c(N)c1-c1ccc(F)c(Cl)c1 [Compound 4, 2-(4-{3-[7-Amino-6-(3-chloro-4-fluoro-phenyl)-5-methyl-pyrazolo[1,5-a]pyrimidin-3-yl]-phenyl}-piperazin-1-yl)-ethanol] | 104 to 107 |  |
| CN(C)c1ccc(-c2cnn3c(N)c(-c4ccc(OS(=O)(=O)c5ccc(Cl)cc5)cc4)cnc23)cc1 [Example 18, 4-Chloro-benzenesulfonic acid 4-[7-amino-3-(4-dimethylamino-phenyl)-pyrazolo[1,5-a]pyrimidin-6-yl]-phenyl ester] | 186 to 191.88 |  |
| Cc1nc2c(-c3cccc(N4CCN(C5CCN(C)CC5)CC4)c3)cnn2c(N)c1-c1cccc(Cl)c1 [Compound 5, 6-(3-Chloro-phenyl)-5-methyl-3-{3-[4-(1-methyl-piperidin-4-yl)-piperazin-1-yl]-phenyl}-pyrazolo[1,5-a]pyrimidin-7-ylamine] | 180 to 185 |  |
| CCN(CC)C1CCN(c2cccc(-c3cnn4c(N)c(-c5ccc(F)cc5)c(C)nc34)c2)CC1 [Example 112, 3-[3-(4-Diethylamino-piperidin-1-yl)-phenyl]-6-(4-fluoro-phenyl)-5-methyl-pyrazolo[1,5-a]pyrimidin-7-ylamine] | 208 to 210 |  |
| Cc1nc2c(-c3cccc(N4CCN(CCO)CC4)c3)cnn2c(N)c1-c1ccc(F)c(F)c1 [Example 108, 2-(4-{3-[7-Amino-6-(3,4-difluoro-phenyl)-5-methyl-pyrazolo[1,5-a]pyrimidin-3-yl]-phenyl}-piperazin-1-yl)-ethanol] | 172 to 174 |  |
| Cc1nc2c(-c3ccc(OCCN(C)C)cc3)cnn2c(N)c1-c1cccc(Cl)c1 [Compound 7, 6-(3-Chloro-phenyl)-3-[4-(2-dimethylamino-ethoxy)-phenyl]-5-methyl-1-pyrazolo[1,5-a]pyrimidin-7-ylamine] |  | crossing of the blood brain barrier [3]: cross the blood brain barrier; EphA4 phosphorylation in vivo in mouse brain [3]: effectively block phosphorylation of EphA4 receptor in vivo |

Second part, led by results:

| melting point [°C] | SMILES | also measured |
| --- | --- | --- |
| 163 to 168 | CCN(CC)C1CCN(c2cccc(-c3cnn4c(N)c(-c5cccc(Cl)c5)c(C)nc34)c2)CC1 [Compound 1, 6-(3-Chloro-phenyl)-3-[3-(4-diethylamino-piperidin-1-yl)-phenyl]-5-methyl-pyrazolo[1,5-a]pyrimidin-7-ylamine] | inhibition of EphA4 auto-phosphorylation (phospho-tyrosine Western blot) [1]: inhibition of EphA4 auto-phosphorylation; overcoming neurite outgrowth inhibition [2]: able to overcome neurite outgrowth inhibition; crossing of the blood brain barrier [3]: cross the blood brain barrier; EphA4 phosphorylation in vivo in mouse brain [3]: effectively block phosphorylation of EphA4 receptor in vivo |
| 171 to 172 | COc1ccc(-c2cnn3c(N)c(-c4cccc(Cl)c4)c(C)nc23)cc1 [Example 95, 6-(3-Chloro-phenyl)-3-(4-methoxy-phenyl)-5-methyl-pyrazolo[1,5-a]pyrimidin-7-ylamine] |  |
| 223 to 226 | COc1ccc(-c2cnn3c(N)c(-c4cccc(Cl)c4)c(C)nc23)cc1OC [Compound 3, 6-(3-Chloro-phenyl)-3-(3,4-dimethoxy-phenyl)-5-methyl-pyrazolo[1,5-a]pyrimidin-7-ylamine] |  |
| 243 to 244 | COc1ccc(-c2cnn3c(N)c(-c4ccc(F)cc4)c(C)nc23)cc1 [Example 103, 6-(4-Fluoro-phenyl)-3-(4-methoxy-phenyl)-5-methyl-pyrazolo[1,5-a]pyrimidin-7-ylamine] |  |
| 228 to 230 | COc1ccc(-c2cnn3c(N)c(-c4cccc(Cl)c4)c(CF)nc23)cc1OC [Example 99, 6-(3-Chloro-phenyl)-3-(3,4-dimethoxy-phenyl)-5-fluoromethyl-pyrazolo[1,5-a]pyrimidin-7-ylamine] |  |
| 235 to 238 | COc1ccc(-c2cnn3c(N)c(-c4ccc(F)c(Cl)c4)c(C)nc23)cc1OC [Example 101, 6-(3-Chloro-4-fluoro-phenyl)-3-(3,4-dimethoxy-phenyl)-5-methyl-pyrazolo[1,5-a]pyrimidin-7-ylamine] |  |
| 224 to 227 | COc1ccc(-c2cnn3c(N)c(-c4ccc(F)c(Cl)c4)c(C)nc23)cc1 [Example 102, 6-(3-Chloro-4-fluoro-phenyl)-3-(4-methoxy-phenyl)-5-methyl-pyrazolo[1,5-a]-pyrimidin-7-ylamine] |  |
